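48-hour exposure; five concentrations; linearly interpolated endpoints. GI50: concentration for 50% inhibition of growth. TGI: concentration producing complete growth inhibition.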

Data on ten compounds can be found in PubChem BioAssay (NCI).

Assay in all cases: growth of human tumour cells (NCI), 48 h
Assay [1] concerns EKVX NSCLC.
For assay [2], the system named is OVCAR-4 ovarian.
Assay [3] deals with SN12C renal.
In assay [4] the test system is UO-31 renal.
Assay [5] relates to IGROV1 ovarian.
In assay [6] the test system is M14 melanoma.
Assay [7] deals with SK-MEL-28 melanoma.
Assay [8] relates to NCI-H460 lung.
The test system of assay [9] is A549 NSCLC.
For assay [10], the system named is MOLT-4 leukemia.

As to `CCCCN(CC)CC(C(C)=O)c1c(O)c2ccccc2oc1=O` (stereo not drawn), the TGI in assay [1], in [2], in assay [3], in assay [4], in [5] and in [6] was more than 100 µM in each case. Moreover, the TGI in assay [7], in [8], in [9] and in assay [10] was more than 100 µM in each case.

Take `CSC1=Nc2ccccc2N=C(c2ccc(Cl)cc2)C1`: the TGI in assay [1], in assay [2], in assay [3], in assay [4], in [5] and in [6] was more than 100 µM in each case. Besides, the TGI is more than 100 µM in [7], more than 100 µM in assay [8], more than 100 µM in [9] and 67.4 µM in assay [10].

As for `CC(C)(C)OC(=O)NCCCCCCCn1c2c(c3ccccc3c1=O)C(=O)c1ccccc1-2`, the GI50 is more than 100 µM in [1]; 30.5 µM in assay [2]; 73.7 µM in assay [3]; 25.6 µM in assay [4]; 26.9 µM in assay [5]; 44.4 µM in assay [6]. For the same compound, the GI50 was 50.4 µM in assay [7], 28.6 µM in assay [8], 31.8 µM in assay [9] and 25.6 µM in assay [10]. Besides, the TGI in assay [1], in assay [2], in [3], in [4], in [5] and in assay [6] was more than 100 µM throughout. For the same compound, the TGI in [7], in [8], in [9] and in assay [10] was more than 100 µM throughout.

Turning to `O=C(O)[C@@H](Cc1ccc2ccccc2c1)NC(=O)n1c2ccccc2c2ccccc21`, the GI50 is 5.56 µM in assay [1]; 6.8 µM in [2]; 3.94 µM in assay [3]; 5.18 µM in assay [4]; 4.06 µM in assay [5]; 3.25 µM in [6]. Also, the GI50 in assay [7] was 11.4 µM; in assay [8], 3.47 µM; in [9], 4.36 µM; in assay [10], 4.12 µM. For the same compound, the TGI was 62.2 µM in [1]; more than 100 µM in [2]; 17.7 µM in [3]; 45.5 µM in assay [4]; 80.7 µM in assay [5]; 19.5 µM in assay [6]. In addition, the TGI in assay [7] was 46.8 µM; in assay [8], 33.5 µM; in [9], more than 100 µM; in assay [10], 20.7 µM.

With `CC(=O)OCC1OC(N2C(=O)C(=O)c3ccccc32)C(OC(C)=O)C(OC(C)=O)C1OC(C)=O` (stereo not drawn), the TGI in assay [1], in assay [2], in assay [3], in assay [4], in assay [5] and in [6] was more than 100 µM each time. Further, the TGI in assay [7], in [8], in assay [9] and in assay [10] was more than 100 µM throughout.

For the compound `COc1ccc2c(c1)/C(=C/c1cc(OC)c(OC)c(OC)c1)C(=O)N2`, the GI50 was 11.6 µM in assay [1]; 1.18 µM in assay [3]; 2.74 µM in [4]; 0.268 µM in assay [5]; 0.351 µM in [6]; more than 100 µM in [7]. Also, the values for the GI50 in assay [8], in assay [9] and in assay [10] were 0.269 µM, 0.603 µM and 0.216 µM, respectively. For the same compound, the TGI in assay [1] was more than 100 µM; in assay [2], more than 100 µM; in assay [3], more than 100 µM; in assay [4] it was more than 100 µM; in [5] it was more than 53.8 µM; in assay [6] it was 11.7 µM. Further, the TGI in assay [7], in assay [8], in assay [9] and in [10] was more than 100 µM throughout.

Regarding `c1c[nH]c(CN2CCOCC2)n1`, the TGI in assay [1], in assay [2], in assay [3], in assay [4], in [5] and in assay [6] was more than 100 µM each time. Moreover, the TGI in assay [7], in assay [8], in assay [9] and in [10] was more than 100 µM each time.

For the compound `COc1ccc(/C(=N\NC(=S)NN)C(c2ccc(OC)cc2)C2C(=O)Oc3ccccc32)cc1` (stereo not drawn), the GI50 in assay [1], in [2], in assay [3], in assay [4], in assay [5] and in [6] was more than 100 µM throughout. The GI50 in assay [8], in [9] and in assay [10] was more than 100 µM throughout. Besides, the TGI in [1], in assay [2], in assay [3], in assay [4], in [5] and in assay [6] was more than 100 µM each time. Besides, the TGI in assay [7], in assay [8], in [9] and in assay [10] was more than 100 µM in each case.

For `O=C(O)[C@H](c1ccccc1)[C@@H](C(=O)O)c1ccccc1`, the TGI in assay [1], in assay [2], in assay [3], in assay [4], in [5] and in [6] was more than 100 µM throughout. In addition, the TGI in [7], in assay [8], in assay [9] and in [10] was more than 100 µM in each case.

As for `O=C1CCCCN1CCCCC#Cc1cccc(C#Cc2cccnc2)c1`, the GI50 in assay [1] was 23.5 µM; in [2] it was 13.4 µM; in assay [3] it was 14.1 µM; in [4] it was 5.97 µM; in assay [5] it was 14.7 µM; in assay [6], 14.3 µM. The GI50 in [7] is 38.7 µM; in assay [8], 19.6 µM; in assay [9] it was 18.4 µM; in [10], 73.1 µM. Moreover, the TGI in [1] is more than 100 µM; in assay [2], 32.1 µM; in assay [3], 28.5 µM; in [4] it was 23 µM; in assay [5] it was 43.1 µM; in [6], 34.7 µM. Moreover, the TGI was more than 100 µM in assay [7], more than 100 µM in assay [8], 60.6 µM in [9] and more than 100 µM in [10].
